# How the values were obtained:
# GST-TYK2(888-1187) = biological target: T1, GST-TYK2(888-1187) (Homo sapiens, UniProt P29597); assay: EPK JAK-family kinases profiling assay (Caliper mobility shift), TYK2; format: biochemical; conditions: ATP 30 μM, 40 nM kinase
# T1 construct: GST-TYK2(888-1187); made in house
# T1 sequence (P29597 888-1187): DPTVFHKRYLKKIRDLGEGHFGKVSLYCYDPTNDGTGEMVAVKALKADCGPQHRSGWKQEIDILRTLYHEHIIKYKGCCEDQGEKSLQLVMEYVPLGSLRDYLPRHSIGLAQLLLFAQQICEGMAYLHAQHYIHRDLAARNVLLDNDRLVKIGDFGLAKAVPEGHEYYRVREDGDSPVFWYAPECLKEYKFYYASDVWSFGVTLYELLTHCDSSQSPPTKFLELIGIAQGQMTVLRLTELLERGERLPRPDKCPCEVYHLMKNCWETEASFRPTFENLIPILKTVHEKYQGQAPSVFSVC
# Method in brief: (§1)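 Turnover was read as substrate/product ratio after mobility-shift capillary-like separation of each reaction, run for 60 min at 30 °C with GST-tagged kinase domain, labelled peptide and ATP, and terminated with EDTA stop buffer.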
# GST-JAK1(866-1154) = biological target: T2, GST-JAK1(866-1154) (Homo sapiens, UniProt P23458); assay: EPK JAK-family kinases profiling assay (Caliper mobility shift), JAK1; format: biochemical; conditions: ATP 40 μM, 50 nM kinase
# T2 construct: GST-JAK1(866-1154); made in house
# T2 sequence (P23458 866-1154): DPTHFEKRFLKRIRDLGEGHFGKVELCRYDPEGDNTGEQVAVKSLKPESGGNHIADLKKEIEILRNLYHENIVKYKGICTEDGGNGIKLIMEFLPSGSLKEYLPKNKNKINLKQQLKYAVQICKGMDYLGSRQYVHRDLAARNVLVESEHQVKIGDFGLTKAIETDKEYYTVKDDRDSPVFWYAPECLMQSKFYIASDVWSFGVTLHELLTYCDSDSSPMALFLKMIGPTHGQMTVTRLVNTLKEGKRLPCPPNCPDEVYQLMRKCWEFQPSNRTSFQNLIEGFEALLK
# Method in brief: as §1
# [1] = tested on: JAK/STAT pathway (JAK1/JAK2-dependent nuclear translocation of STAT1-GFP); assay: Inhibition of the JAK/STAT pathway: IFN-γ stimulated nuclear translocation of STAT1-GFP in HT1080 fibrosarcoma cells; format: cell-based; conditions: Homo sapiens, HT-1080; HT1080 STAT1-GFP cells, 100 ng/ml IFN-γ 2 hours, compound added 30 min before; read-out: STAT1translo IC50
# Method in brief: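 Readout is the nuclear-minus-cytoplasmic GFP-STAT1 intensity, imaged at 10× using Hoechst-defined nuclear masks over at least 1000 cells/well. Stably transfected HT1080 fibrosarcoma cells were pretreated 30 min with compound (final 0.003–10 μM, 0.1% DMSO) before IFN-γ challenge.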
# GST-JAK2(808-1132) = biological target: T3, GST-JAK2(808-1132) (Homo sapiens, UniProt O60674); assay: EPK JAK-family kinases profiling assay (Caliper mobility shift), JAK2; format: biochemical; conditions: ATP 20 μM, 1.8 nM kinase
# T3 construct: GST-JAK2(808-1132); purchased Invitrogen (Carlsbad, USA) #4288
# T3 sequence (O60674 808-1132): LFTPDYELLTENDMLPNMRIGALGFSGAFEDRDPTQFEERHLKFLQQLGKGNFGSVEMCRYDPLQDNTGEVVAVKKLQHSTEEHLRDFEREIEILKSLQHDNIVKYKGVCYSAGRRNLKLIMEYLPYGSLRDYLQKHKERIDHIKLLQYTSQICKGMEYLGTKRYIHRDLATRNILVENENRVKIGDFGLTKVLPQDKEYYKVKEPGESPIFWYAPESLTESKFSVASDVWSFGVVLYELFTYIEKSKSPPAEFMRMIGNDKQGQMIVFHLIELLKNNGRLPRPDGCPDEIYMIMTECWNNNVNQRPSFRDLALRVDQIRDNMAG
# Method in brief: as §1
# GST-JAK3(811-1124) = biological target: T4, GST-JAK3(811-1124) (Homo sapiens, UniProt P52333); assay: EPK JAK-family kinases profiling assay (Caliper mobility shift), JAK3; format: biochemical; conditions: ATP 80 μM, 6 nM kinase
# T4 construct: GST-JAK3(811-1124); made in house
# T4 sequence (P52333 811-1124): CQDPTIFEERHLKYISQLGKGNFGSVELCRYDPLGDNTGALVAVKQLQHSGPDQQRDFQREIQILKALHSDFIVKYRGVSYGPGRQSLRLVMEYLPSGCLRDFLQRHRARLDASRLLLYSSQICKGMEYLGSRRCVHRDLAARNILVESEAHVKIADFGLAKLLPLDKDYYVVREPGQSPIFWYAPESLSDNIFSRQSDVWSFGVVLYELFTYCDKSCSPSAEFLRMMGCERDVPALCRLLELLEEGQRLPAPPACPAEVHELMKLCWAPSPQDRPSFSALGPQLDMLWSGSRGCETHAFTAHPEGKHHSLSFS
# Method in brief: as §1
Structure (SMILES),IC50 (GST-TYK2(888-1187)) [µM],IC50 (GST-JAK1(866-1154)) [µM],IC50 [1] [µM],IC50 (GST-JAK2(808-1132)) [µM],IC50 (GST-JAK3(811-1124)) [µM]
"Cc1cc(-c2cnc3cccc(-c4cc(F)c(CN5CCOCC5)c(F)c4)c3n2)ccc1CN1CCOCC1 [Example 71, 8-(3,5-Difluoro-4-morpholin-4-ylmethyl-phenyl)-2-(3-methyl-4-morpholin-4-ylmethyl-phenyl)-quinoxaline]",0.51,0.16,2.48,0.0081,0.79
"CN1CCN(c2ccc(-c3cnc4cccc(-c5cc(F)c(CN6CCOCC6)c(F)c5)c4n3)cc2)CC1 [Example 87, 8-(3,5-Difluoro-4-morpholin-4-ylmethyl-phenyl)-2-[4-(4-methyl-piperazin-1-yl)-phenyl]-quinoxaline]",0.72,0.225,1.32,0.0335,3.5
"CCN1CCN(Cc2ccc(-c3cnc4cccc(-c5cc(F)c(CN6CCOCC6)c(F)c5)c4n3)cc2C)CC1 [Example 92, 8-(3,5-Difluoro-4-morpholin-4-ylmethyl-phenyl)-2-[4-(4-ethyl-piperazin-1-ylmethyl)-3-methyl-phenyl]-quinoxaline]",3.65,1.39,2.14,0.043,4.9
"CCN1CCN(Cc2ccc(-c3cnc4cccc(-c5ccc(CN6CCOCC6)c(F)c5)c4n3)cc2C)CC1 [Example 93, 2-[4-(4-Ethyl-piperazin-1-ylmethyl)-3-methyl-phenyl]-8-(3-fluoro-4-morpholin-4-ylmethyl-phenyl)-quinoxaline]",0.67,0.185,3.01,0.022,1.25
"Cc1cc(-c2cnc3cccc(-c4cc(F)c(CN5CCOCC5)c(F)c4)c3n2)ccc1C(=O)N(C)CCN(C)C [Example 94, 4-[8-(3,5-Difluoro-4-morpholin-4-ylmethyl-phenyl)-quinoxalin-2-yl]-N-(2-dimethylamino-ethyl)-2,N-dimethyl-benzamide]",0.985,0.455,1.53,0.027,2.15
"O=C(c1c(F)cc(-c2cccc3ncc(-c4cnn(C5CCNCC5)c4)nc23)cc1F)N1CCOCC1 [Example 97, {2,6-Difluoro-4-[3-(1-piperidin-4-yl-1H-pyrazol-4-yl)-quinoxalin-5-yl]-phenyl}-morpholin-4-yl-methanone]",0.51,0.72,0.495,0.0195,9.15
"CS(=O)(=O)c1ccc(-c2cccc3ncc(-c4cnn(C5CCNCC5)c4)nc23)cc1F [Example 99, 8-(3-Fluoro-4-methanesulfonyl-phenyl)-2-(1-piperidin-4-yl-1H-pyrazol-4-yl)-quinoxaline]",0.805,0.87,1.36,0.022,4.85
"Cc1cc(-c2cnc3cccc(-c4cc(F)c(CN5CCS(=O)(=O)CC5)c(F)c4)c3n2)ccc1C(=O)N1CCC(N(C)C)CC1 [Example 102, (4-Dimethylamino-piperidin-1-yl)-(4-{8-[4-(1,1-dioxido-thiomorpholin-4-ylmethyl)-3,5-difluoro-phenyl]-quinoxalin-2-yl}-2-methyl-phenyl)-methanone]",2.73,1.22,0.0315,0.074,5.33
"CCN1CCN(c2ccc(-c3cnc4cccc(-c5cc(F)c(CN6CCOCC6)c(F)c5)c4n3)cc2C)CC1 [Example 103, 8-(3,5-Difluoro-4-morpholin-4-ylmethyl-phenyl)-2-[4-(4-ethyl-piperazin-1-yl)-3-methyl-phenyl]-quinoxaline]",1.2,1.15,0.824,0.0305,3.6
"COc1cc(-c2cnc3cccc(-c4ccc(C(=O)N5CCOCC5)c(C)c4)c3n2)ccc1N1CCN(C)CC1 [Example 105, (4-{3-[3-Methoxy-4-(4-methyl-piperazin-1-yl)-phenyl]-quinoxalin-5-yl}-2-methyl-phenyl)-morpholin-4-yl-methanone]",0.985,0.81,0.895,0.032,1.8
"COc1cc(-c2cnc3cccc(-c4cc(F)c(CN5CCS(=O)(=O)CC5)c(F)c4)c3n2)ccn1 [Example 106, 8-[4-(1,1-Dioxido-thiomorpholin-4-ylmethyl)-3,5-difluoro-phenyl]-2-(2-methoxy-pyridin-4-yl)-quinoxaline]",1.97,0.365,0.202,0.082,0.195
"CN1CCN(c2ccc(-c3cnc4cccc(-c5cc(F)c(CN6CCOCC6)c(F)c5)c4n3)cn2)CC1 [Example 107, 8-(3,5-Difluoro-4-morpholin-4-ylmethyl-phenyl)-2-[6-(4-methyl-piperazin-1-yl)-pyridin-3-yl]-quinoxaline]",2.95,1.35,2.47,0.0955,9.8

# Stronger by IC50 (GST-TYK2(888-1187)), values ahead:
IC50 (GST-TYK2(888-1187)) [µM],IC50 (GST-JAK1(866-1154)) [µM],IC50 [1] [µM],IC50 (GST-JAK2(808-1132)) [µM],IC50 (GST-JAK3(811-1124)) [µM],Structure (SMILES)
0.27,0.0335,2.08,0.00625,0.89,"COc1cc(-c2cnc3cccc(-c4ccc(CC(=O)N5CCOCC5)cc4)c3n2)ccc1OCCCN1CCOCC1 [Example 83, 2-(4-{3-[3-Methoxy-4-(3-morpholin-4-yl-propoxy)-phenyl]-quinoxalin-5-yl}-phenyl)-1-morpholin-4-yl-ethanone]"
0.27,0.0585,1.46,0.0055,0.975,"COc1cc(-c2cnc3cccc(-c4cc(F)c(CN5CCOCC5)c(F)c4)c3n2)ccc1OCCCN1CCOCC1 [Example 84, 8-(3,5-Difluoro-4-morpholin-4-ylmethyl-phenyl)-2-[3-methoxy-4-(3-morpholin-4-yl-propoxy)-phenyl]-quinoxaline]"
0.115,0.0125,0.24,0.00325,0.22,"COc1cc(-c2cnc3cccc(-c4ccc(CN5CCS(=O)(=O)CC5)c(F)c4)c3n2)ccc1OCCCN1CCOCC1 [Example 85, 8-[4-(1,1-Dioxido-thiomorpholin-4-ylmethyl)-3-fluoro-phenyl]-2-[3-methoxy-4-(3-morpholin-4-yl-propoxy)-phenyl]-quinoxaline]"
0.038,0.00665,0.093,< 0.003,0.11,"COc1cc(-c2cnc3cccc(-c4cc(F)c(CN5CCS(=O)(=O)CC5)c(F)c4)c3n2)ccc1OCCCN1CCOCC1 [Example 86, 8-[4-(1,1-Dioxido-thiomorpholin-4-ylmethyl)-3,5-difluoro-phenyl]-2-[3-methoxy-4-(3-morpholin-4-yl-propoxy)-phenyl]-quinoxaline]"
0.113,0.027,0.7,0.00655,0.84,"CN1CCN(c2ccc(-c3cnc4cccc(-c5ccc(CC(=O)N6CCOCC6)c(F)c5)c4n3)cc2)CC1 [Example 88, 2-(2-Fluoro-4-{3-[4-(4-methyl-piperazin-1-yl)-phenyl]-quinoxalin-5-yl}-phenyl)-1-morpholin-4-yl-ethanone]"
0.45,0.135,1.34,0.034,3.95,"CN1CCN(c2ccc(-c3cnc4cccc(-c5cc(F)c(C(=O)N6CCOCC6)c(F)c5)c4n3)cc2)CC1 [Example 89, (2,6-Difluoro-4-{3-[4-(4-methyl-piperazin-1-yl)-phenyl]-quinoxalin-5-yl}-phenyl)-morpholin-4-yl-methanone]"
0.04,0.018,0.105,< 0.003,0.0735,"Cc1cc(-c2cnc3cccc(-c4cc(F)c(CN5CCS(=O)(=O)CC5)c(F)c4)c3n2)ccc1C(=O)N(C)CCN(C)C [Example 95, N-(2-Dimethylamino-ethyl)-4-{8-[4-(1,1-dioxido-thiomorpholin-4-ylmethyl)-3,5-difluoro-phenyl]-quinoxalin-2-yl}-2,N-dimethyl-benzamide]"
0.0505,0.053,0.0355,< 0.003,0.26,"O=S1(=O)CCN(Cc2c(F)cc(-c3cccc4ncc(-c5cnn(C6CCNCC6)c5)nc34)cc2F)CC1 [Example 96, 8-[4-(1,1-Dioxido-thiomorpholin-4-ylmethyl)-3,5-difluoro-phenyl]-2-(1-piperidin-4-yl-1H-pyrazol-4-yl)-quinoxaline]"
0.13,0.052,0.42,< 0.003,0.39,"COc1cc(-c2cnc3cccc(-c4cc(F)c(CN5CCOCC5)c(F)c4)c3n2)ccc1N1CCN(C)CC1 [Example 104, 8-(3,5-Difluoro-4-morpholin-4-ylmethyl-phenyl)-2-[3-methoxy-4-(4-methyl-piperazin-1-yl)-phenyl]-quinoxaline]"
